Results as given in patent US7462615B2, “Inhibitors of cysteine proteases, the pharmaceutical compositions thereof and their therapeutic applications” (Hybrigenics SA, priority 2005, dated 2008).

Molecular target: T1, USP7 (Homo sapiens, UniProt Q93009)
T1 construct: His tag (from vector pFastBac-HT) (N); made in house; host or cells: Sf9 or High Five insect cells (baculovirus)
Experiment: USP7 Activity Assay
Assay type: biochemical
Settings: 400 nM Ub-AMC; 152 pM enzyme; pre-incubated 30 minutes at 25° C., 60 minutes at 37° C.; sigmoidal fit; read-out: USP 7 (Inhibition of cysteine protease activities)
Text: The cDNA encoding USP7 was obtained by PCR amplification from placenta mRNA. USP7 cDNA was subcloned by PCR into a baculovirus expression vector (pFastBac-HT; Invitrogen). A cDNA encoding a mutated USP7 was generated by mutagenic PCR. The corresponding protein encodes a cysteine to alanine substitution at residue 223. The sequences were ascertained by sequencing of the entire open reading frame. Bacmids encoding USP7 were generated following DH10bac transposition. The corresponding bacmids were transfected into insect cells (Sf9). Viruses were recovered from culture supernatant and amplified twice. Insect cells (Sf9 or High Five; Invitrogen) were infected for 72 hours. Total cell lysates were harvested and lyzed in lysis buffer (Tris HCl 50 mM pH7.6; 0.75% NP40; 500 mM NaCl; 10% glycerol; 1 mM DTT; 10 mM imidazole; Protease Inhibitor. Cocktail; AEBSF
20 μg.ml^−1; Aprotinin 10 μg.ml^−1). Proteins were affinity purified on metal affinity resins (Talon Metal affinity resin; BD Biosciences). Bound materials were extensively washed in wash buffer (50 mM Sodium Phosphate pH7.0; 300 mM NaCl; 10 mM imidazole; 0.5% Triton X-100; 10% glycerol) and eluted from the resin in 250 mM imidazole-containing wash buffer. Proteins were dialyzed in dialysis buffer (Tris HCl pH 7.6 20 mM; NaCl 200 mM; DTT 1 mM; EDTA 1 mM; 10% Glycerol). Proteins purifications were analyzed on 4-12% NuPAGE (Invitrogen).
USP7 was diluted in USP buffer (50 mM Tris HCl; 0.5 mM EDTA; 5 mM DTT; 0.01% Triton X-100; Bovine Serum Albumin 0.05 mg.ml^−1 pH7.6). Compounds stocks (100 mM) were stored at −20° C. in DMSO. Compounds were tested at the following final concentrations: 100 μM; 33.3 μM; 11.1 μM; 3.7 μM; 1.23 μM; 412 nM; 137 nM; 45.7 nM; 15.2 nM; 5 nM.
Reactions were performed as duplicates in Black LJL 96 well plates (HE microplates; Molecular Devices; 20 μl final reaction volume). The substrate concentration for USP7 was 400 nM Ub-AMC (Chem. Biol., 2003, 10, p. 837-846) (Boston Biochem). The concentrations of the enzyme (USP7) in specificity assays was 152 pM. The concentrations were determined in order to perform specificity assays under initial velocities at fixed substrate concentration. Compounds were pre-incubated with enzymes for 30 minutes at 25° C. Reactions were initiated by addition of substrate to the plates containing the enzymes (+/−compounds) diluted in assay buffer. Reactions were incubated for 60 minutes at 37° C. Reactions were stopped by adding acetic acid (100 mM final). Readings were performed on a Pherastar Fluorescent Reader (BMG). λ Emission 380 nm; λ Excitation=460 nm. Data (mean values +/−standard deviation) were analyzed as % of control (no compound) and plotted as percentage versus the Log of the compound concentration using GraphPad (Prism). Data were fitted to a sigmoidal model (variable slope).

T1 sequence (Q93009 whole entry): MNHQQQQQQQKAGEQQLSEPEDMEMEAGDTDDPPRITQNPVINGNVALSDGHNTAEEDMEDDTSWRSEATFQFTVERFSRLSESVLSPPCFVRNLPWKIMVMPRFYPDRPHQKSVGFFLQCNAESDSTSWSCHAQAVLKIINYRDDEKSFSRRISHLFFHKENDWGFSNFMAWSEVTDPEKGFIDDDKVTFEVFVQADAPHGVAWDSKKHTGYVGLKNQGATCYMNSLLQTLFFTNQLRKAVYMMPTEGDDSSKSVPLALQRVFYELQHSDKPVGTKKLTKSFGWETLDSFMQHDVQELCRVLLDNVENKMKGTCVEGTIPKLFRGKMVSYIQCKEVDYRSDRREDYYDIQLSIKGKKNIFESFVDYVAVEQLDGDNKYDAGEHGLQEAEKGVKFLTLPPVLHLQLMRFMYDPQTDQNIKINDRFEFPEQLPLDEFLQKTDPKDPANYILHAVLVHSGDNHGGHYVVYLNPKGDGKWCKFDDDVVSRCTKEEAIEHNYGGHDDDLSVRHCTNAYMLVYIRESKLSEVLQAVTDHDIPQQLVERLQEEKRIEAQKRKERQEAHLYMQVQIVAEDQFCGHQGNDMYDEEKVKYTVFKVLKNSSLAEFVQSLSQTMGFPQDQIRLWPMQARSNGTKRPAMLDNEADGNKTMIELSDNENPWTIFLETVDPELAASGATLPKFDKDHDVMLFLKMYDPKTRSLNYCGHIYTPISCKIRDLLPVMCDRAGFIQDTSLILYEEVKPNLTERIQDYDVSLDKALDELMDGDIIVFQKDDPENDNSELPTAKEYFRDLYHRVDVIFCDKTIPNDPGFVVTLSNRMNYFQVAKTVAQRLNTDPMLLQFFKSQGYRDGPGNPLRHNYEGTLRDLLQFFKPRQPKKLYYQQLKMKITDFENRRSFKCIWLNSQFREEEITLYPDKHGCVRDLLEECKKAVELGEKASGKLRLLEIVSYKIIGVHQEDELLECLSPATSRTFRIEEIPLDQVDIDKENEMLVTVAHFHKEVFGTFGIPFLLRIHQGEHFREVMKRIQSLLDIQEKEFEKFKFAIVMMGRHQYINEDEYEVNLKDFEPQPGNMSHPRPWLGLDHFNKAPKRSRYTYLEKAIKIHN

| Compound | IC50 [nM] |
| --- | --- |
| 6-(7)-Chloro-1-methyl-2,3,4,10,10a-pentaaza-cyclopenta[b]fluoren-9-one [Example 3/A] | 2800 |
| Cc1nnc2nc3c(nn12)-c1ccccc1C3=O [Example 1b/B, 3-Methyl-1,2,3a,4,10-pentaaza-cyclopenta[b]fluoren-9-one] | 550 |
| CCc1nnc2nc3c(nn12)C(=O)c1ccccc1-3 [Example 1d/A, 1-Ethyl-2,3,4,10,10a-pentaaza-cyclopenta[b]fluoren-9-one] | 16500 |
| CCc1nnc2nc3c(nn12)-c1ccccc1C3=O [Example 1d/B, 3-Ethyl-1,2,3a, 4,10-pentaaza-cyclopenta[b]fluoran-9-one] | 225 |
| CCCc1nnc2nc3c(nn12)-c1ccccc1C3=O [Example 1e/B, 3-Propyl-1,2,3a, 4,10-pentaaza-cyclopenta[b]fluoren-9-one] | 662 |
| O=C1c2ccccc2-c2nc3nnc(CO)n3nc21 [Example 1h/A, 1-Hydroxymethyl-2,3,4,10,10a-pentaaza-cyclopenta[b]fluoren-9-one] | 9700 |
| O=C1c2ccccc2-c2nn3c(CO)nnc3nc21 [Example 1h/B] | 1610 |
| COCc1nnc2nc3c(nn12)-c1ccccc1C3=O [Example 1i/B, 3-Methoxymethyl-1,2,3a, 4,10-pentaaza-cyclopenta[b]fluoren-9-one] | 461 |
| O=C1c2ccccc2-c2nn3c(Cc4ccccc4)nnc3nc21 [Example 1k/B, 3-Benzyl-1,2,3a,4,10-pentaaza-cyclopenta[b]fluoren-9-one] | 425 |
| Cn1nc2nc3c(nc2n1)-c1ccccc1C3=O [Example 4a, 2-Methyl-2H-1,2,3,4,10-pentaaza-cyclopenta[b]fluoren-9-one] | 51000 |

More lines, in order of falling IC50, values ahead:

| IC50 [nM] | Compound |
| --- | --- |
| 23000 | CCCCc1nnc2nc3c(nn12)C(=O)c1ccccc1-3 [Example 1f/A, 1-Butyl-2,3,4,10,10a-pentaaza-cyclopenta[b]fluoren-9-one] |
| 16700 | Cc1nnc2nc3c(nn12)C(=O)c1ccccc1-3 [Example 1b/A, 1-Methyl-2,3,4,10,10a-pentaaza-cyclopenta[b]fluoren-9-one] |
| 15300 | Nc1nnc2nc3c(nn12)C(=O)c1ccccc1-3 [Example 1c/A, 1-Amino-2,3,4,10,10a-pentaaza-cyclopenta[b]fluoren-9-one] |
| 3300 | O=C1c2ccccc2-c2nc3nnc(Cc4ccccc4)n3nc21 [Example 1k/A, 1-Benzyl-2,3,4,10,10a-pentaaza-cyclopenta[b]fluoren-9-one] |
| 789 | CC(C)Cc1nnc2nc3c(nn12)-c1ccccc1C3=O [Example 1g/B, 3-Isobutyl-1,2,3a,4,10-pentaaza-cyclopenta[b]fluoren-9-one] |
| 700 | Nc1nnc2nc3c(nn12)-c1ccccc1C3=O [Example 1c/B, 3-Amino-1,2,3a,4,10-pentaaza-cyclopenta[b]fluoren-9-one] |
| 604 | CCCCc1nnc2nc3c(nn12)-c1ccccc1C3=O [Example 1f/B, 3-Butyl-1,2,3a,4,10-pentaaza-cyclopenta[b]fluoren-9-one] |
| 522 | Cc1nnc2nc3c(nn12)-c1ccc(Cl)cc1C3=O [Example 3/B, 7-Chloro-3-methyl-1,2,3a, 4,10-pentaaza-cyclopenta[b]fluoren-9-one] |
| 207 | O=C1c2ccccc2-c2nn3c(C4CC4)nnc3nc21 [Example 1j/B, 3-Cyclopropyl-1,2,3a,4,10-pentaaza-cyclopenta[b]fluoren-9-one] |
